Source: patent US7381824B2 (Agouron Pharmaceuticals, Inc., priority 2003, dated 2008)
pKi: −log10 of the molar value.

Each molecule was assayed on human umbilical vein endothelial cells (HUVEC) (assay: HUVEC+VEGF proliferation assay). Settings: Homo sapiens; VEGF-stimulated HUVEC proliferation, MTT, 72 hours.
Type: cell-based
Protocol: HUVEC+VEGF Proliferation Assay
This assay determines the ability of a test compound to inhibit the growth factor-stimulated proliferation of human umbilical vein endothelial cells (“HUVEC”). HUVEC cells (passage 3-4, Clonetics, Corp.) were thawed into EGM2 culture medium (Clonetics Corp) in T75 flasks. Fresh EGM2 medium was added to the flasks 24 hours later. Four or five days later, cells were exposed to another culture medium (F12K medium supplemented with 10% fetal bovine serum (FBS), […] endothelial cell growth supplement (ECGS), and 0.1 mg/mL heparin). Exponentially-growing HUVEC cells were used in experiments thereafter. Ten to twelve thousand HUVEC cells were plated in 96-well dishes in […] of rich, culture medium (described above). The cells were allowed to attach for 24 hours in this medium. The medium was then removed by aspiration and […] of starvation media (F12K+1% FBS) was added to each well. After 24 hours, […] of test agent dissolved in 1% DMSO in starvation medium or this vehicle alone was added into each treatment well; the final DMSO concentration was 0.1%. One hour later, […] of VEGF (30 ng/mL) in starvation media was added to all wells except those containing untreated controls; the final VEGF concentration was 6 ng/mL. Cellular proliferation was quantified 72 hours later by MTT dye reduction, at which time cells were exposed for 4 hours MTT (Promega Corp.). Dye reduction was stopped by addition of a stop solution (Promega Corp.) and absorbance at 595 nm was determined on a 96-well spectrophotometer plate reader.

Row | Compound | IC50 [nM]
1 | COc1ccc2c(Oc3ccc4c(C(=O)NC5CCCC5)c(C)sc4c3)ccnc2c1 [Example 53, N-cyclopentyl-6-[(7-methoxyquinolin-4-yl)oxy]-2-methyl-1-benzothiophene-3-carboxamide] | 1 to 10
2 | COCCNC(=O)c1c(C)oc2cc(Oc3ccnc4cc(OC)ccc34)ccc12 [Example 88, N-(2-methoxyethyl)-6-[(7-methoxyquinolin-4-yl)oxy]-2-methyl-1-benzofuran-3-carboxamide] | 1 to 10
3 | COc1ccc2c(Oc3ccc4c(C(=O)NC[C@H]5CCCO5)c(C)oc4c3)ccnc2c1 [Example 84, 6-[(7-methoxyquinolin-4-yl)oxy]-2-methyl-N-[(2R)tetrahydrofuran-2-ylmethyl]-1-benzofuran-3-carboxamide] | 1 to 10
4 | COc1ccc2c(Oc3ccc4c(C(=O)Nc5cc(C)cc(C)n5)c(C)oc4c3)ccnc2c1 [Example 108, N-(4,6-dimethylpyridin-2-yl)-6-[(7-methoxyquinolin-4-yl)oxy]-2-methyl-1-benzofuran-3-carboxamide] | 1 to 10
5 | C=CCOc1ccc2c(Oc3ccc4c(C(=O)NC)c(C)oc4c3)ccnc2c1 [Example 42, 6-{[7-(allyloxy)quinolin-4-yl]oxy}-N,2-dimethyl-1-benzofuran-3-carboxamide] | < 1
6 | Cc1oc2cc(Oc3ccnc4cc(OC(F)(F)F)ccc34)ccc2c1C(=O)NC1CC1 [Example 73, N-cyclopropyl-2-methyl-6-{[7-(trifluoromethoxy)quinolin-4-yl]oxy}-1-benzofuran-3-carboxamide] | 1 to 10
7 | COc1ccc2c(Oc3ccc4c(C(=O)NC(C)C)c(C)oc4c3)ccnc2c1 [Example 43, N-isopropyl-6-[(7-methoxyquinolin-4-yl)oxy]-2-methyl-1-benzofuran-3-carboxamide] | 1 to 10
8 | CCCCNC(=O)c1c(C)oc2cc(Oc3ccnc4cc(O)ccc34)ccc12 [Example 41, N-butyl-6-[(7-hydroxyquinolin-4-yl)oxy]-2-methyl-1-benzofuran-3-carboxamide] | 1 to 10
9 | COc1ccc2c(Oc3ccc4c(C(=O)NCCCN5CCOCC5)c(C)oc4c3)ccnc2c1 [Example 64, 6-[(7-methoxyquinolin-4-yl)oxy]-2-methyl-N-(3-morpholin-4-ylpropyl)-1-benzofuran-3-carboxamide] | 1 to 10
10 | Cc1oc2cc(Oc3ccnc4cc(OCCNC5CCC5)ccc34)ccc2c1C(=O)NC1CC1 [Example 100] | 1 to 10
11 | CCCCNC(=O)c1c(C)oc2cc(Oc3ccnc4cc(OC)ccc34)ccc12 [Example 39, N-butyl-6-[(7-methoxyquinolin-4-yl)oxy]-2-methyl-1-benzofuran-3-carboxamide] | < 1
12 | CNC(=O)n1c(C)cc2cc(Nc3ccnc4cc(-c5ccccn5)ccc34)ccc21 [Example 32] | 1 to 10
13 | Cc1cc(C)nc(NC(=O)c2c(C)oc3cc(Oc4ccnc5cc(O)ccc45)ccc23)c1 [Example 109, N-(4,6-dimethylpyridin-2-yl)-6-[(7-hydroxyquinolin-4-yl)oxy]-2-methyl-1-benzofuran-3-carboxamide] | > 10
14 | COc1ccc2c(Oc3ccc4c(C(=O)NC5CC5)c(C)oc4c3)ccnc2c1 [Example 63, N-cyclopropyl-6-[(7-methoxyquinolin-4-yl)oxy]-2-methyl-1-benzofuran-3-carboxamide] | < 1
15 | CNC(=O)c1c(C)oc2cc(Oc3ccnc4cc(O)ccc34)ccc12 [Example 28, 6-[(7-hydroxyquinoline-4-yl)oxy]-N,2-dimethyl-1-benzofuran-3-carboxamide] | 1 to 10
16 | COc1ccc2c(Oc3ccc4c(C(=O)Nc5ccccn5)c(C)oc4c3)ccnc2c1 [Example 40, 6-[(7-methoxyquinolin-4-yl)oxy]-2-methyl-N-pyridin-2-yl-1-benzofuran-3-carboxamide] | < 1
17 | COc1ccc2c(Oc3ccc4c(C(=O)NCCCN5CCOCC5)c(C)sc4c3)ccnc2c1 [Example 62, 6-[(7-methoxyquinolin-4-yl)oxy]-2-methyl-N-(3-morpholin-4-ylpropyl)-1-benzothiophene-3-carboxamide] | > 10
18 | CNC(=O)c1c(C)oc2cc(Oc3ccnc4cc(OCCN5CCCC5)ccc34)ccc12 [Example 35, N,2-dimethyl-6-{[7-(2-pyrrolidin-1-ylethoxy)quinolin-4-yl]oxy}-1-benzofuran-3-carboxamide] | < 1

Same assay, conditions: VEGF-stimulated HUVEC proliferation, MTT, 72 hours

Row | Compound | IC50 [nM]
19 | CNC(=O)c1c(C)sc2cc(Oc3ccnc4cc(-c5ccccn5)ccc34)ccc12 [Example 31] | < 1

Each molecule was assayed against T1, human vascular endothelial growth factor receptor 2 (VEGF-R2) (Homo sapiens, UniProt P35968, DEL940-989/E990V) (assay: VEGF-R2 coupled spectrophotometric assay (FLVK, unphosphorylated VEGF-R2D50)). Settings: unphosphorylated VEGF-R2D50 (FLVK).
T1 construct: VEGF-R2D50 contains residues 806-939 and 990-1171; made in house; host or cells: baculovirus/insect cell system
Type: biochemical
From the text: This construct determines the ability of a test compound to inhibit tyrosine kinase activity. A construct (VEGF-R2D50) of the cytosolic domain of human vascular endothelial growth factor receptor 2 (VEGF-R2) lacking the 50 central residues of the 68 residues of the kinase insert domain was expressed in a baculovirus/insect cell system. Of the 1356 residues of full-length VEGF-R2, VEGF-R2D50 contains residues 806-939 and 990-1171, and also one point mutation (E990V) within the kinase insert domain relative to wild-type VEGF-R2. Autophosphorylation of the purified construct was performed by incubation of the enzyme at a concentration of […] in the presence of 3 mM ATP and 40 mM MgCl2 in 100 mM HEPES, pH 7.5, containing 5% glycerol and 5 mM DTT, at 4° C. for 2 h. […] See Parast et al., Biochemistry, 37, 16788-16801 (1998).
VEGF-R2 Assay: Coupled Spectrophotometric (FLVK-P) Assay
The production of ADP from ATP that accompanies phosphoryl transfer was coupled to oxidation of NADH using phosphoenolpyruvate (PEP) and a system having pyruvate kinase (PK) and lactic dehydrogenase (LDH). The oxidation of NADH was monitored by following the decrease of absorbance at 340 nm (e340=6.22 cm^−1 mM^−1) using a Beckman DU 650 spectrophotometer. Assay conditions for phosphorylated VEGF-R2D50 (indicated as FLVK-P in the tables below) were the following: 1 mM PEP; […] NADH; 50 units of LDH/mL; 20 units of PK/mL; 5 mM DTT; 5.1 mM poly(E4Y1); 1 mM ATP; and 25 mM MgCl2 in 200 mM HEPES, pH 7.5. Assay conditions for unphosphorylated VEGF-R2D50 (indicated as FLVK in the tables) were the following: 1 mM PEP; […] NADH; 50 units of LDH/mL; 20 units of PK/mL; 5 mM DTT; 20 mM poly(E4Y1); 3 mM ATP; and 60 mM MgCl2 and 2 mM MnCl2 in 200 mM HEPES, pH 7.5. Assays were initiated with 5 to 40 nM of enzyme. K1 values were determined by measuring enzyme activity in the presence of varying concentrations of test compounds. The percent inhibition at 50 nM (% inhibition @ 50 nM) was determined by linear least-squares regression analysis of absorbance as a function of time. The binding inhibitions were fitted to equation as described by Morrison. The data were analyzed using Enzyme Kinetic and Kaleidagraph software.

T1 sequence (P35968 with tags, fused parts or gaps DEL940-989/E990V limits assumed): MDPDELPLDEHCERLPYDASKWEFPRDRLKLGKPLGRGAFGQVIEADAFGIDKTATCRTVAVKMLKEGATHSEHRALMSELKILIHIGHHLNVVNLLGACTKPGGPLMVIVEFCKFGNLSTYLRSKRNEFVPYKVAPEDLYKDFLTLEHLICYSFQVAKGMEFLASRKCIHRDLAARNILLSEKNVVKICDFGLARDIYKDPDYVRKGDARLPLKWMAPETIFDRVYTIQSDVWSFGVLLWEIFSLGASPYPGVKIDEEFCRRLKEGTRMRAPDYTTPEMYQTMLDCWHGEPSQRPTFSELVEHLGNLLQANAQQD

Row | pKi | Compound
20 | 8.00 to 9.00 | COc1ccc2c(Oc3ccc4c(C(=O)NC5CCCC5)c(C)sc4c3)ccnc2c1 [Example 53, N-cyclopentyl-6-[(7-methoxyquinolin-4-yl)oxy]-2-methyl-1-benzothiophene-3-carboxamide]
21 | 8.00 to 9.00 | COCCNC(=O)c1c(C)oc2cc(Oc3ccnc4cc(OC)ccc34)ccc12 [Example 88, N-(2-methoxyethyl)-6-[(7-methoxyquinolin-4-yl)oxy]-2-methyl-1-benzofuran-3-carboxamide]
22 | 8.00 to 9.00 | COc1ccc2c(Oc3ccc4c(C(=O)NC[C@H]5CCCO5)c(C)oc4c3)ccnc2c1 [Example 84, 6-[(7-methoxyquinolin-4-yl)oxy]-2-methyl-N-[(2R)tetrahydrofuran-2-ylmethyl]-1-benzofuran-3-carboxamide]
23 | 8.00 to 9.00 | CNC(=O)c1c(C)sc2cc(Oc3ccnc4cc(-c5ccccn5)ccc34)ccc12 [Example 31]
24 | 8.00 to 9.00 | Cc1oc2cc(Oc3ccnc4cc(OC(F)(F)F)ccc34)ccc2c1C(=O)NC1CC1 [Example 73, N-cyclopropyl-2-methyl-6-{[7-(trifluoromethoxy)quinolin-4-yl]oxy}-1-benzofuran-3-carboxamide]
25 | < 8.00 | Cc1sc2cc(Oc3ccnc4cc(O)ccc34)ccc2c1C(=O)NC1CCCC1 [Example 56, N-cyclopentyl-6-[(7-hydroxyquinolin-4-yl)oxy]-2-methyl-1-benzothiophene-3-carboxamide]
26 | > 9.00 | CNC(=O)c1c(C)oc2cc(Oc3ccnc4cc(-c5ccncc5)ccc34)ccc12 [Example 7, N-2-dimethyl-6-[(7-pyridin-4-ylquinolin-4-yl)oxy]-1-benzofuran-3-carboxamide]
27 | < 8.00 | CNC(=O)c1c(C)n(C)c2cc(Oc3ccnc4cc(OC)ccc34)ccc12 [Example 75, [(7-methoxyquinolin-4-yl)oxy]-N,1,2-trimethyl-1H-indole-3-carboxamide]
28 | > 9.00 | Cc1oc2cc(Oc3ccnc4cc(OCCNC(C)(C)C)ccc34)ccc2c1C(=O)NC1CC1 [Example 98]
29 | > 9.00 | COCC(C)NCCOc1ccc2c(Oc3ccc4c(C(=O)NC5CC5)c(C)oc4c3)ccnc2c1 (stereo not shown) [Example 97, N-cyclopropyl-6-[(7-{2-[(2-methoxy-1-methylethyl)amino]ethoxy}quinolin-4-yl)oxy]-2-methyl-1-benzofuran-3-carboxamide]
30 | > 9.00 | CCN1CCN(CCOc2ccc3c(Oc4ccc5c(C(=O)NC6CC6)c(C)oc5c4)ccnc3c2)CC1 [Example 94, N-cyclopropyl-2-methyl-6-{7-[2-(4-ethyl-piperazin-1-yl)-ethoxy]quinolin-4-yloxy}-1-benzofuran-3-carboxamide]
31 | < 8.00 | CNC(=O)c1c(C)n(C)c2cc(Oc3ccnc4cc(OCCN5CCCC5)ccc34)ccc12 [Example 78, N,1,2-trimethyl-6-{[7-(2-pyrrolidin-1-ylethoxy)quinolin-4-yl]oxy}-1H-indole-3-carboxamide]
32 | < 8.00 | COc1ccc2c(Oc3ccc4c(C(=O)NCc5cccnc5)c(C)sc4c3)ccnc2c1 [Example 54, 6-[(7-methoxyquinolin-4-yl)oxy]-2-methyl-N-(pyridin-3-ylmethyl)-1-benzothiophene-3-carboxamide]
33 | > 9.00 | Cc1oc2cc(Oc3ccnc4cc(OCCBr)ccc34)ccc2c1C(=O)NC1CC1 [Example 93, 6-{[7-(2-bromoethoxy)quinolin-4-yl]oxy}-N-cyclopropyl-2-methyl-1-benzofuran-3-carboxamide]
34 | < 8.00 | COCC(C)NC(=O)c1c(C)oc2cc(Oc3ccnc4cc(OC)ccc34)ccc12 (stereo not shown) [Example 87, 6-[(7-methoxyquinolin-4-yl)oxy]-2-methyl-N-[2-methoxy-1-methyl-ethyl]-1-benzofuran-3-carboxamide]
